Test results published in patent publication US7951798B2, “Polymorphs of olanzapine hydrochloride” (Egis Hyogyszergyar Nyrt., priority 2003, dated 2011).

Assay: solubility in water (analytical studies)
Type: physicochemical
Settings: compared with the new polymorphic hydrochloride salts

In the case of `Cc1cc2c(s1)Nc1ccccc1N=C2N1CCN(C)CC1` [olanzapine base, 2-methyl-4-(4-methylpiperazin-1-yl)-10H-thieno-[2,3-b][1,5]-benzodiazepine], the solubility in water is reported as “significantly lower”.
